Assays:
[1] = Ratio of drug level in heart to lung in Sprague-Dawley rat at 37 to 111 MBq, iv measured at 24 hrs; details: in vivo
Femur [2] = assay: Biodistribution in Sprague-Dawley rat femur at 37 to 111 MBq, iv measured at 2 hrs by gamma counting analysis; assay type: ADME, organism-based; details: in vivo
Liver [3] = assay: Drug uptake in Sprague-Dawley rat liver at 37 to 111 MBq, iv measured for 60 mins by TTC staining-based micro-SPECT analysis; assay type: ADME, organism-based; details: in vivo, 1 h
Intestine [4] = assay: Biodistribution in Sprague-Dawley rat intestine at 37 to 111 MBq, iv measured at 24 hrs by gamma counting analysis; assay type: ADME, organism-based; details: in vivo
Rattus norvegicus [5] = assay: Biodistribution in Sprague-Dawley rat stomach at 37 to 111 MBq, iv measured at 24 hrs by gamma counting analysis; assay type: ADME, organism-based; details: in vivo
Lung [6] = assay: Drug uptake in Sprague-Dawley rat lung at 37 to 111 MBq, iv measured for 60 mins by TTC staining-based micro-SPECT analysis; assay type: ADME, organism-based; details: in vivo, 1 h
Blood [7] = assay: Biodistribution in Sprague-Dawley rat blood at 37 to 111 MBq, iv measured at 24 hrs by gamma counting analysis; assay type: ADME, organism-based; details: in vivo
Thyroid gland [8] = assay: Biodistribution in Sprague-Dawley rat thyroid at 37 to 111 MBq, iv measured at 2 hrs by gamma counting analysis; assay type: ADME, organism-based; details: in vivo
Brain [9] = assay: Biodistribution in Sprague-Dawley rat brain at 37 to 111 MBq, iv measured at 24 hrs by gamma counting analysis; assay type: ADME, organism-based; details: in vivo
Heart [10] = assay: Biodistribution in Sprague-Dawley rat heart at 37 to 111 MBq, iv measured at 24 hrs by gamma counting analysis; assay type: ADME, organism-based; details: in vivo
[11] = Drug uptake in Sprague-Dawley rat parathyroid at 37 to 111 MBq, iv measured for 60 mins by TTC staining-based micro-SPECT analysis; assay type: ADME, organism-based, Thyroid gland; details: in vivo, 1 h
Heart [12] = assay: Biodistribution in Sprague-Dawley rat heart at 37 to 111 MBq, iv measured at 2 hrs by gamma counting analysis; assay type: ADME, organism-based; details: in vivo
Thyroid gland [13] = assay: Biodistribution in Sprague-Dawley rat thyroid assessed per organ at 37 to 111 MBq, iv measured at 24 hrs by gamma counting analysis; assay type: ADME, organism-based; details: in vivo
[14] = Ratio of drug level in heart to liver in Sprague-Dawley rat at 37 to 111 MBq, iv measured at 2 hrs; details: in vivo
Rattus norvegicus [15] = assay: Biodistribution in Sprague-Dawley rat stomach at 37 to 111 MBq, iv measured at 2 hrs by gamma counting analysis; assay type: ADME, organism-based; details: in vivo
[16] = Biodistribution in Sprague-Dawley rat urine at 37 to 111 MBq, iv measured at 2 hrs by gamma counting analysis; assay type: ADME, organism-based; details: in vivo
[17] = Ratio of drug level in heart to liver in Sprague-Dawley rat at 37 to 111 MBq, iv measured at 24 hrs; details: in vivo
[18] = Drug uptake in left ventricle of Sprague-Dawley rat ischemia reperfusion injury model at 74 MBq, iv measured for 60 mins by TTC staining-based micro-SPECT analysis; assay type: ADME, organism-based, Heart left ventricle; details: in vivo, 1 h
Thyroid gland [19] = assay: Biodistribution in Sprague-Dawley rat thyroid at 37 to 111 MBq, iv measured at 24 hrs by gamma counting analysis; assay type: ADME, organism-based; details: in vivo
Ovary [20] = assay: Biodistribution in Sprague-Dawley rat ovary at 37 to 111 MBq, iv measured at 24 hrs by gamma counting analysis; assay type: ADME, organism-based, Female gonad; details: in vivo
Kidney [21] = assay: Biodistribution in Sprague-Dawley rat kidney at 37 to 111 MBq, iv measured at 2 hrs by gamma counting analysis; assay type: ADME, organism-based; details: in vivo
Femur [22] = assay: Biodistribution in Sprague-Dawley rat femur at 37 to 111 MBq, iv measured at 24 hrs by gamma counting analysis; assay type: ADME, organism-based; details: in vivo
Spleen [23] = assay: Biodistribution in Sprague-Dawley rat spleen at 37 to 111 MBq, iv measured at 2 hrs by gamma counting analysis; assay type: ADME, organism-based; details: in vivo
[24] = Ratio of drug level in heart to blood in Sprague-Dawley rat at 37 to 111 MBq, iv measured at 24 hrs; assay type: ADME, organism-based
Liver [25] = assay: Biodistribution in Sprague-Dawley rat liver at 37 to 111 MBq, iv measured at 24 hrs by gamma counting analysis; assay type: ADME, organism-based; details: in vivo
Intestine [26] = assay: Biodistribution in Sprague-Dawley rat intestine at 37 to 111 MBq, iv measured at 2 hrs by gamma counting analysis; assay type: ADME, organism-based; details: in vivo
Muscle tissue [27] = assay: Biodistribution in Sprague-Dawley rat muscle at 37 to 111 MBq, iv measured at 24 hrs by gamma counting analysis; assay type: ADME, organism-based; details: in vivo
Lung [28] = assay: Biodistribution in Sprague-Dawley rat lung at 37 to 111 MBq, iv measured at 24 hrs by gamma counting analysis; assay type: ADME, organism-based; details: in vivo
[29] = Ratio of drug level in heart to blood in Sprague-Dawley rat at 37 to 111 MBq, iv measured at 2 hrs; assay type: ADME, organism-based
Thyroid gland [30] = assay: Drug uptake in Sprague-Dawley rat thyroid at 37 to 111 MBq, iv measured for 60 mins by TTC staining-based micro-SPECT analysis; assay type: ADME, organism-based; details: in vivo, 1 h
Lung [31] = assay: Biodistribution in Sprague-Dawley rat lung at 37 to 111 MBq, iv measured at 2 hrs by gamma counting analysis; assay type: ADME, organism-based; details: in vivo
Liver [32] = assay: Biodistribution in Sprague-Dawley rat liver at 37 to 111 MBq, iv measured at 2 hrs by gamma counting analysis; assay type: ADME, organism-based; details: in vivo
Rattus norvegicus [33] = assay: Biodistribution in Sprague-Dawley rat urinary bladder at 37 to 111 MBq, iv measured at 24 hrs by gamma counting analysis; assay type: ADME, organism-based; details: in vivo
[34] = Drug uptake in left ventricle of Sprague-Dawley rat left anterior descending occlusion model at 74 MBq, iv measured for 60 mins by TTC staining-based micro-SPECT analysis; assay type: ADME, organism-based, Heart left ventricle; details: in vivo, 1 h
[35] = Biodistribution in Sprague-Dawley rat urine at 37 to 111 MBq, iv measured at 24 hrs by gamma counting analysis; assay type: ADME, organism-based; details: in vivo
Brain [36] = assay: Biodistribution in Sprague-Dawley rat brain at 37 to 111 MBq, iv measured at 2 hrs by gamma counting analysis; assay type: ADME, organism-based; details: in vivo
Blood [37] = assay: Biodistribution in Sprague-Dawley rat blood at 37 to 111 MBq, iv measured at 2 hrs by gamma counting analysis; assay type: ADME, organism-based; details: in vivo
Rattus norvegicus [38] = assay: Biodistribution in Sprague-Dawley rat testis at 37 to 111 MBq, iv measured at 24 hrs by gamma counting analysis; assay type: ADME, organism-based; details: in vivo
Spleen [39] = assay: Biodistribution in Sprague-Dawley rat spleen at 37 to 111 MBq, iv measured at 24 hrs by gamma counting analysis; assay type: ADME, organism-based; details: in vivo
Muscle tissue [40] = assay: Biodistribution in Sprague-Dawley rat muscle at 37 to 111 MBq, iv measured at 2 hrs by gamma counting analysis; assay type: ADME, organism-based; details: in vivo
[41] = Drug uptake in Sprague-Dawley rat myocardium at 37 to 111 MBq, iv measured for 60 mins by TTC staining-based micro-SPECT analysis; assay type: ADME, organism-based; details: in vivo, 1 h
Rattus norvegicus [42] = assay: Biodistribution in Sprague-Dawley rat urinary bladder at 37 to 111 MBq, iv measured at 2 hrs by gamma counting analysis; assay type: ADME, organism-based; details: in vivo
Ovary [43] = assay: Biodistribution in Sprague-Dawley rat ovary at 37 to 111 MBq, iv measured at 2 hrs by gamma counting analysis; assay type: ADME, organism-based, Female gonad; details: in vivo
[44] = Ratio of drug level in heart to lung in Sprague-Dawley rat at 37 to 111 MBq, iv measured at 2 hrs; details: in vivo
Rattus norvegicus [45] = assay: Biodistribution in Sprague-Dawley rat testis at 37 to 111 MBq, iv measured at 2 hrs by gamma counting analysis; assay type: ADME, organism-based; details: in vivo
Thyroid gland [46] = assay: Biodistribution in Sprague-Dawley rat thyroid assessed per organ at 37 to 111 MBq, iv measured at 2 hrs by gamma counting analysis; assay type: ADME, organism-based; details: in vivo
Kidney [47] = assay: Biodistribution in Sprague-Dawley rat kidney at 37 to 111 MBq, iv measured at 24 hrs by gamma counting analysis; assay type: ADME, organism-based; details: in vivo

Question: With `COc1cc2c(cc1OC)[C@@H]1C(=O)c3ccc4c(c3O[C@@H]1CO2)C[C@H](C(C)(O)C[123I])O4` (some centres not stated) as the compound, how does the Ratio [1] read?
Answer: Its Ratio is 0.85.

Question: What about the Drug uptake (Femur [2]) of the same compound?
Answer: The Drug uptake was 0.242 % ID/g.

Question: And the Drug uptake (Liver [3])?
Answer: The Drug uptake was “Not Active”.

Question: And the Drug uptake (Intestine [4])?
Answer: The Drug uptake was 0.122 % ID/g.

Question: What about the Drug uptake (Rattus norvegicus [5]) of the same compound?
Answer: The Drug uptake was 2.121 % ID/g.

Question: And the Drug uptake (Lung [6])?
Answer: The Drug uptake was “Not Active”.

Question: What about the Drug uptake (Blood [7]) of the same compound?
Answer: The Drug uptake was 0.06 % ID/g.

Question: What about the Drug uptake (Thyroid gland [8]) of the same compound?
Answer: The Drug uptake was 1.368 % ID/g.

Question: What about the Drug uptake (Brain [9]) of the same compound?
Answer: The Drug uptake was 0.003 % ID/g.

Question: And the Drug uptake (Heart [10])?
Answer: Its Drug uptake is 0.045 % ID/g.

Question: What about the Drug uptake [11] of the same compound?
Answer: Its Drug uptake is “Active”.

Question: What about the Drug uptake (Heart [12]) of the same compound?
Answer: Its Drug uptake is 2.01 % ID/g.

Question: And the Drug uptake (Thyroid gland [13])?
Answer: Its Drug uptake is 3.16 %ID.

Question: And the Ratio [14]?
Answer: The Ratio was 2.98.

Question: And the Drug uptake (Rattus norvegicus [15])?
Answer: The Drug uptake was 3.263 % ID/g.

Question: What about the Drug uptake [16] of the same compound?
Answer: Its Drug uptake is 0.918 % ID/g.

Question: And the Ratio [17]?
Answer: Its Ratio is 1.08.

Question: And the Drug uptake [18]?
Answer: The Drug uptake was “Active”.

Question: And the Drug uptake (Thyroid gland [19])?
Answer: Its Drug uptake is 13.329 % ID/g.

Question: And the Drug uptake (Ovary [20])?
Answer: Its Drug uptake is 0.04 % ID/g.

Question: What about the Drug uptake (Kidney [21]) of the same compound?
Answer: Its Drug uptake is 0.7 % ID/g.

Question: And the Drug uptake (Femur [22])?
Answer: The Drug uptake was 0.025 % ID/g.

Question: What about the Drug uptake (Spleen [23]) of the same compound?
Answer: Its Drug uptake is 0.234 % ID/g.

Question: What about the Kp at 24 h [24] of the same compound?
Answer: The Kp at 24 h was 0.79.

Question: And the Drug uptake (Liver [25])?
Answer: Its Drug uptake is 0.042 % ID/g.

Question: What about the Drug uptake (Intestine [26]) of the same compound?
Answer: Its Drug uptake is 0.846 % ID/g.

Question: What about the Drug uptake (Muscle tissue [27]) of the same compound?
Answer: Its Drug uptake is 0.024 % ID/g.

Question: And the Drug uptake (Lung [28])?
Answer: The Drug uptake was 0.055 % ID/g.

Question: And the Kp at 2 h [29]?
Answer: The Kp at 2 h was 8.37.

Question: What about the Drug uptake (Thyroid gland [30]) of the same compound?
Answer: Its Drug uptake is “Active”.

Question: What about the Drug uptake (Lung [31]) of the same compound?
Answer: The Drug uptake was 0.502 % ID/g.

Question: And the Drug uptake (Liver [32])?
Answer: The Drug uptake was 0.709 % ID/g.

Question: And the Drug uptake (Rattus norvegicus [33])?
Answer: The Drug uptake was 0.768 % ID/g.

Question: What about the Drug uptake [34] of the same compound?
Answer: Its Drug uptake is “Active”.

Question: What about the Drug uptake [35] of the same compound?
Answer: Its Drug uptake is 0.768 % ID/g.

Question: What about the Drug uptake (Brain [36]) of the same compound?
Answer: Its Drug uptake is 0.098 % ID/g.

Question: And the Drug uptake (Blood [37])?
Answer: Its Drug uptake is 0.257 % ID/g.

Question: What about the Drug uptake (Rattus norvegicus [38]) of the same compound?
Answer: Its Drug uptake is 0.04 % ID/g.

Question: And the Drug uptake (Spleen [39])?
Answer: The Drug uptake was 0.032 % ID/g.

Question: What about the Drug uptake (Muscle tissue [40]) of the same compound?
Answer: Its Drug uptake is 0.357 % ID/g.

Question: And the Drug uptake [41]?
Answer: The Drug uptake was “Active”.

Question: What about the Drug uptake (Rattus norvegicus [42]) of the same compound?
Answer: Its Drug uptake is 0.918 % ID/g.

Question: What about the Drug uptake (Ovary [43]) of the same compound?
Answer: The Drug uptake was 0.22 % ID/g.

Question: And the Ratio [44]?
Answer: The Ratio was 4.11.

Question: And the Drug uptake (Rattus norvegicus [45])?
Answer: The Drug uptake was 0.22 % ID/g.

Question: What about the Drug uptake (Thyroid gland [46]) of the same compound?
Answer: Its Drug uptake is 0.334 %ID.

Question: And the Drug uptake (Kidney [47])?
Answer: The Drug uptake was 0.044 % ID/g.

Source: ChEMBL document CHEMBL2390945, “Synthesis and characterization of 123I-CMICE-013: a potential SPECT myocardial perfusion imaging agent” (Bioorg Med Chem, 2013)
